Values joined by “and” are separate entries in the source; they are usually repeats but may differ in a detail not shown here. Identical values can stand only once. Each block holds one compound with its values, some of them ahead of it.
What was measured:
Assay type in all cases: cell-based
[1] = molecular target: T1, 5HT7A (Homo sapiens, UniProt P34969); assay: β-arrestin2 recruitment (Tango); settings: for β-arrestin2 recruitment response, replicate points of concentration-response curve: Fig_S10q, agonist mode
T1 construct: expressed in transfected cells; host or cells: HTLA cells expressing TEV-fused β-arrestin2

[2] = molecular target: T2, DRD2 S1935.42G (Homo sapiens, UniProt P14416, S193G); assay: Gαi/o-mediated cAMP inhibition (GloSensor), mutant; settings: DRD2 Ser5.42Gly; G-protein assay
T2 construct: expressed in transfected cells; host or cells: HEK293T (ATCC CRL-11268)

[3] = molecular target: T3, DRD2 S1945.43G (Homo sapiens, UniProt P14416, S194G); assay: Gαi/o-mediated cAMP inhibition (GloSensor), mutant; settings: DRD2 Ser5.43Gly; G-protein assay
T3 construct: expressed in transfected cells; host or cells: HEK293T (ATCC CRL-11268)

[4] = molecular target: T4, 5HT2C (Homo sapiens, UniProt P28335); assay: β-arrestin2 recruitment (Tango); settings: Fig_S10m; for β-arrestin2 recruitment response in presence of serotonin (replicate values): +10μM serotonin; for β-arrestin2 recruitment response (dose-response source data, replicate values): drug alone
T4 sequence (P28335 33-458): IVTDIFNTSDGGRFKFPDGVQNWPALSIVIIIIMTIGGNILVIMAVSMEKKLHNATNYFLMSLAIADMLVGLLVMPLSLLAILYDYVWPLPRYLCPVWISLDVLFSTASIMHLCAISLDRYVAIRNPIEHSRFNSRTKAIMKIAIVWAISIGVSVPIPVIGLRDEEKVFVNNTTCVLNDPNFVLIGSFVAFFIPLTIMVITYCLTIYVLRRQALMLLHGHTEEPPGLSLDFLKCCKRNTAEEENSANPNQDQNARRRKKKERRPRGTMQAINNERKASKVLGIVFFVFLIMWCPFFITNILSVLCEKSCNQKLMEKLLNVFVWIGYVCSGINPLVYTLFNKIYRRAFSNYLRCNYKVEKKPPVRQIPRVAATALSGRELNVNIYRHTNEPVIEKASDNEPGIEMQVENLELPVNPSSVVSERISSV

[5] = molecular target: T5, 320 non-olfactory GPCRs (Homo sapiens, UniProt P21452); parameters: GPCRome screening signal at PTGIR / GPCRome screening signal at PTH1R / GPCRome screening signal at PTH2R / GPCRome screening signal at QRFP / GPCRome screening signal at RXFP2 / GPCRome screening signal at RXFP3 / GPCRome screening signal at RXFP4 / GPCRome screening signal at S1PR2 / GPCRome screening signal at S1PR3 / GPCRome screening signal at S1PR4 / GPCRome screening signal at S1PR5 / GPCRome screening signal at SCTR / GPCRome screening signal at SSTR2 / GPCRome screening signal at SSSTR / GPCRome screening signal at SSTR4 / GPCRome screening signal at SSTR5 / GPCRome screening signal at SUCNR1 / GPCRome screening signal at TA1 / GPCRome screening signal at TAAR2 / GPCRome screening signal at TAAR5 / GPCRome screening signal at TAAR6 / GPCRome screening signal at TAAR8 / GPCRome screening signal at TACR1 / GPCRome screening signal at TACR2 / GPCRome screening signal at TACR3 / GPCRome screening signal at TBXA2R / GPCRome screening signal at TSHR / GPCRome screening signal at UTS2R / GPCRome screening signal at VIPR2 / GPCRome screening signal at GPR68 no V2 Tail / GPCRome screening signal at GRM2 / GPCRome screening signal at GRM3: reference not given here; settings: receptor TACR2
T5 construct: expressed in transfected cells; host or cells: HTLA cells

[6] = molecular target: T6, 320 non-olfactory GPCRs (Homo sapiens, UniProt P32241); parameters: GPCRome screening signal at PTGIR / GPCRome screening signal at PTH1R / GPCRome screening signal at PTH2R / GPCRome screening signal at QRFP / GPCRome screening signal at RXFP2 / GPCRome screening signal at RXFP3 / GPCRome screening signal at RXFP4 / GPCRome screening signal at S1PR2 / GPCRome screening signal at S1PR3 / GPCRome screening signal at S1PR4 / GPCRome screening signal at S1PR5 / GPCRome screening signal at SCTR / GPCRome screening signal at SSTR2 / GPCRome screening signal at SSSTR / GPCRome screening signal at SSTR4 / GPCRome screening signal at SSTR5 / GPCRome screening signal at SUCNR1 / GPCRome screening signal at TA1 / GPCRome screening signal at TAAR2 / GPCRome screening signal at TAAR5 / GPCRome screening signal at TAAR6 / GPCRome screening signal at TAAR8 / GPCRome screening signal at TACR1 / GPCRome screening signal at TACR2 / GPCRome screening signal at TACR3 / GPCRome screening signal at TBXA2R / GPCRome screening signal at TSHR / GPCRome screening signal at UTS2R / GPCRome screening signal at VIPR2 / GPCRome screening signal at GPR68 no V2 Tail / GPCRome screening signal at GRM2 / GPCRome screening signal at GRM3: reference not given here; settings: receptor VIPR1
T6 construct: expressed in transfected cells; host or cells: HTLA cells

[7] = Fig_5f, single replicate values
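For GPCRome agonism screen response in this document: fold over basal response of each receptor without drug.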

T5 sequence (P21452 whole entry): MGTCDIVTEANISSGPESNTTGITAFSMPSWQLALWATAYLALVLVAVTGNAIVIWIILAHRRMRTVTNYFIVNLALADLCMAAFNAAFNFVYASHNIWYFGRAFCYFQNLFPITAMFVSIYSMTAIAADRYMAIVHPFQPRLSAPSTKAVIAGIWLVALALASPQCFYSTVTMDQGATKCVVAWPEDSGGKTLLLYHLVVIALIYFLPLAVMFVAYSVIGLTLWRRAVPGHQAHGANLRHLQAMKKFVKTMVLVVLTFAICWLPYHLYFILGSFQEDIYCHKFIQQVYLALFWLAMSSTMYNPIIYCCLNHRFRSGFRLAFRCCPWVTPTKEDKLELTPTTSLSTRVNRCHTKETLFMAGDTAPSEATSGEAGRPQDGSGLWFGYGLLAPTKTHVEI
T1 sequence (P34969 1-445 isoform P34969-2): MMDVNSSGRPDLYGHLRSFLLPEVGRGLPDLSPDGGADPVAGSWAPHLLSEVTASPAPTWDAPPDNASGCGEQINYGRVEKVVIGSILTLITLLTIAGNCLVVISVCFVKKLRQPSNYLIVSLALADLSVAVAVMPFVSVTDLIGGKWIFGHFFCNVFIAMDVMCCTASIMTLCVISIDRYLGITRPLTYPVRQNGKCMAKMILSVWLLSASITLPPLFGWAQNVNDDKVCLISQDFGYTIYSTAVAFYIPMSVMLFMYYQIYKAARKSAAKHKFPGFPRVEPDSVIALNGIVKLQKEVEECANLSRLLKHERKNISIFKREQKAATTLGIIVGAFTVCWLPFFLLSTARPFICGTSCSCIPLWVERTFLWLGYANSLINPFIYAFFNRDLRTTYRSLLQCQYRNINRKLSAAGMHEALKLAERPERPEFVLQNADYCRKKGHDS
T6 sequence (P32241 31-457): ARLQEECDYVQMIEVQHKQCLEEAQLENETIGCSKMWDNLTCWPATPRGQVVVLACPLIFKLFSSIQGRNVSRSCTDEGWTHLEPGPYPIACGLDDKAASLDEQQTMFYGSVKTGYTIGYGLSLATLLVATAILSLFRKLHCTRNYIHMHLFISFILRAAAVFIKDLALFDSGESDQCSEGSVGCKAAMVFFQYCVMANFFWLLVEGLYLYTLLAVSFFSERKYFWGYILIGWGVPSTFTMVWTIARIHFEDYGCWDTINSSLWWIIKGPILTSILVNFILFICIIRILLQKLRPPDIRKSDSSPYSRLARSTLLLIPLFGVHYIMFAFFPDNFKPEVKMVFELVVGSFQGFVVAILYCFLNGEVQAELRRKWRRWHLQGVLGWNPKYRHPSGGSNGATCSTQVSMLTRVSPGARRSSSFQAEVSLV
T3 sequence (P14416 whole entry S194G): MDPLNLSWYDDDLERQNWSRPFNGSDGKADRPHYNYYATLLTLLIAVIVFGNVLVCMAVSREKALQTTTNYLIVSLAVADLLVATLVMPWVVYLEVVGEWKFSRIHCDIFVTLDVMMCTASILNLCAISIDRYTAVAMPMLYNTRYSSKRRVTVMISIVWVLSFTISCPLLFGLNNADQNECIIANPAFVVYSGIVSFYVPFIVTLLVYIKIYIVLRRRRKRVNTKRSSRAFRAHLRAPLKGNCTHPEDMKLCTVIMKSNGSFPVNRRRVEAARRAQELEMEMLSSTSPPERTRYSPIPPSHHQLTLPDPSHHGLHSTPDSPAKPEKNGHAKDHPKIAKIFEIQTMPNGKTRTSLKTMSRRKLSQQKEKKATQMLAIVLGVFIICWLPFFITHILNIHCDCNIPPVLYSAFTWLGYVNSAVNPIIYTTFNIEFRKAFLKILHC
T2 sequence (P14416 whole entry S193G): as the sequence (P14416 whole entry S194G) above, with S193G, G194S counted along it

Structure (SMILES): CCOc1cccc2cc([C@@H](C)NCC3(O)CCCCC3)oc12 [O4RE6]
- concentration at which the receptor is activated ([1]; 5HT7A, agonist activity only at high concentrations): over 1 μM
- β-arrestin2 recruitment response, replicate points of concentration-response curve ([1]; Log[Drug] -8.52): -12.5786 and -8.044 and 1.071 and -9.7421 and 32.4405 and 49.1467 and -14.2149 and 16.5223 and -11.2331 and 4.354 and 35.2448 and 10.2419
- β-arrestin2 recruitment response, replicate points of concentration-response curve ([1]; Log[Drug] -9): 10.8788 and 4.459 and -14.1005 and -17.9842 and -16.1246 and -21.1449 and -7.127 and 62.1289 and 35.3983 and -32.9912 and 26.9263 and -33.8761
- β-arrestin2 recruitment response, replicate points of concentration-response curve ([1]; Log[Drug] -9.52): -17.7926 and -13.0806 and -8.59 and 76.7429 and -5.732 and -9.941 and -9.587 and 8.198 and -49.3687 and 45.8761
- β-arrestin2 recruitment response, replicate points of concentration-response curve ([1]; Log[Drug] -10): 8.776 and -5.649 and -4.779 and -6.75 and 22.3693 and -13.4231 and 66.8562 and 10.9818 and 67.3785 and -0.5782 and 14.0649 and -7.044
- β-arrestin2 recruitment response, replicate points of concentration-response curve ([1]; Log[Drug] -10.52): 3.024 and -18.69 and -0.8855 and -5.258 and -47.1876 and -14.9154 and -10.2215 and 7.524 and 59.795 and 14.1475 and 8.932 and -11.705
- β-arrestin2 recruitment response, replicate points of concentration-response curve ([1]; Log[Drug] -11): 2.617 and -4.127 and -1.973 and 44.555 and 24.1984 and -23.678 and 55.762 and 41.0711 and -15.762 and -13.3333 and -38.2183 and -14.0059
- β-arrestin2 recruitment response, replicate points of concentration-response curve ([1]; Log[Drug] -11.52): 10.0328 and 5.163 and -15.1797 and -41.8076 and 36.1292 and 53.417 and 13.0909 and -3.233 and 13.8777 and 47.469 and -14.7611 and -41.4631
- β-arrestin2 recruitment response, replicate points of concentration-response curve ([1]; Log[Drug] -12): -10.6692 and 6.787 and -7.578 and 7.025 and -23.6244 and 50.44 and -4.476 and 12.3769 and -7.901 and 14.5015 and 35.0914 and -7.516
- agonism after serine to glycine substitution [2]: impaired
- agonism after serine to glycine substitution [3]: impaired
- β-arrestin2 recruitment response in presence of serotonin (replicate values) ([4]; Log[Drug] -5): 58.3147 and 46.4286 and 67.806 and 58.4132 and 79.4697 and 68.0017 and 93.0961 and 72.2806 and 97.8926
- β-arrestin2 recruitment response (dose-response source data, replicate values) ([4]; Log[Drug] -5): 0.7157 and -0.5401 and -1.168 and 2.766 and 0.7235 and 1.739 and 11.316 and 1.077 and 3.549
- β-arrestin2 recruitment response in presence of serotonin (replicate values) ([4]; Log[Drug] -5.52): 54.8113 and 63.0121 and 49.2529 and 68.8758 and 64.9488 and 66.315 and 83.0753 and 67.6275 and 72.9664
- β-arrestin2 recruitment response (dose-response source data, replicate values) ([4]; Log[Drug] -5.52): 1.749 and 2.795 and -1.663 and 3.765 and 1.711 and -0.08172 and 1.356 and 7.494 and -2.02
- β-arrestin2 recruitment response in presence of serotonin (replicate values) ([4]; Log[Drug] -6): 55.8065 and 61.1873 and 58.6737 and 61.6241 and 75.6253 and 78.232 and 62.8429 and 85.8382 and 64.0091
- β-arrestin2 recruitment response (dose-response source data, replicate values) ([4]; Log[Drug] -6): 3.06 and -0.5319 and 0.7534 and 2.096 and -0.5619 and -0.6198 and -1.437 and 2.573 and 0.749
- β-arrestin2 recruitment response in presence of serotonin (replicate values) ([4]; Log[Drug] -6.52): 70.8253 and 57.3668 and 57.1998 and 54.2043 and 49.8953 and 65.9707 and 67.8605 and 93.5331 and 78.9014
- β-arrestin2 recruitment response (dose-response source data, replicate values) ([4]; Log[Drug] -6.52): -0.8494 and -0.7143 and 0.1419 and 1.691 and -0.2222 and -0.8824 and 6.685 and 2.505 and 2.238
- β-arrestin2 recruitment response in presence of serotonin (replicate values) ([4]; Log[Drug] -7): 78.7809 and 65.1211 and 66.7181 and 78.276 and 64.6889 and 65.4492 and 69.2492 and 67.696 and 63.7064
- β-arrestin2 recruitment response (dose-response source data, replicate values) ([4]; Log[Drug] -7): -1.487 and -0.5714 and -1.709 and 1.211 and 0.5059 and 0.1139 and 0.4054 and 1.8599 and -0.4067
- β-arrestin2 recruitment response in presence of serotonin (replicate values) ([4]; Log[Drug] -7.52): 60.5159 and 63.0454 and 62.4237 and 65.5364 and 59.1349 and 50.606 and 95.9761 and 69.8099 and 82.5107
- β-arrestin2 recruitment response (dose-response source data, replicate values) ([4]; Log[Drug] -7.52): 4.965 and 0.04923 and -3.23 and 2.115 and 1.39 and -0.6014 and 1.1728 and 0.6792 and -0.974
- β-arrestin2 recruitment response in presence of serotonin (replicate values) ([4]; Log[Drug] -8): 71.3267 and 75.4455 and 66.4208 and 75.6262 and 64.4484 and 59.5931 and 70.3904 and 75.8595 and 73.1664
- β-arrestin2 recruitment response (dose-response source data, replicate values) ([4]; Log[Drug] -8): 1.2751 and -0.6351 and 2.803 and -0.01928 and -0.2938 and -0.4398 and 3.201 and 7.224 and -1.315
- β-arrestin2 recruitment response in presence of serotonin (replicate values) ([4]; Log[Drug] -8.52): 58.0598 and 61.1071 and 60.9165 and 75.2534 and 73.2353 and 72.7725 and 80.2506 and 68.3081 and 73.8075
- β-arrestin2 recruitment response (dose-response source data, replicate values) ([4]; Log[Drug] -8.52): 1.412 and -1.374 and -2.167 and -0.9173 and -0.6234 and -0.001836 and -1.0517 and 2.438 and -0.7292
- β-arrestin2 recruitment response in presence of serotonin (replicate values) ([4]; Log[Drug] -9): 62.3446 and 66.0878 and 69.0787 and 68.4846 and 71.5679 and 75.9558 and 57.0421 and 71.8594 and 68.3133
- β-arrestin2 recruitment response (dose-response source data, replicate values) ([4]; Log[Drug] -9): 8.947 and 0.2944 and -1.358 and 0.06794 and 1.215 and 1.023 and 1.659 and -1.676 and 1.911
- β-arrestin2 recruitment response in presence of serotonin (replicate values) ([4]; Log[Drug] -9.52): 55.4527 and 57.9556 and 67.8156 and 72.3217 and 60.5213 and 59.5912 and 64.5922 and 60.3604 and 70.7827
- β-arrestin2 recruitment response (dose-response source data, replicate values) ([4]; Log[Drug] -9.52): 0.7577 and 0.9406 and -1.056 and 0.774 and -0.8934 and -0.3755 and 4.117 and -0.7424 and 3.815

- GPCRome screening signal at TACR2 [5, 7]: 1.32 and 1.667 and 1.261 and 1.267
- GPCRome screening signal at VIPR1 [6, 7]: 1.328 and 1.861 and 1.314 and 1.467
Structure (SMILES): CCOc1ccccc1CCC(C)NCC1(O)CCCCC1.Cl (racemic) [Fig_5f]

Structure (SMILES): CCOc1cccc2cc(C(C)NCC3(O)CCCCC3)oc12 (centres unmarked) [O4LE6]
- GPCRome agonism screen response ([5]; replicate values, Fig_4g): 0.5287 and 0.4964 and 0.9933 and 0.8884
- GPCRome agonism screen response ([6]; replicate values, Fig_4g): 0.8893 and 1.908 and 1.195 and 1.527
